For data set [1], the system named is Plasmodium falciparum, K1 strain, IEF stage. The conditions noted are these: cited from earlier work; for Pf SI (selectivity index for P. falciparum = IC50 L6/IC50 Pf): K1 strain vs L6.
For data set [2], the system named is Trypanosoma brucei rhodesiense, STIB 900 strain, trypomastigotes stage. On the set-up: method as in PMID 21348447. The conditions noted are these: data taken from ref 24, read-out: IC50 T. b. rhod.; cited from earlier work.
Data set [3] relates to L6 rat skeletal myoblast cell line. On the set-up: method as in PMID 21348447. The conditions noted are these: data taken from ref 24; cited from earlier work.
Data set [4] has as its system Trypanosoma brucei rhodesiense, STIB 900 strain, trypomastigotes stage. The data set can be described thus: In vitro anti-trypanosomal activity (growth inhibition). Type of data set: cell-based. The following applies: STIB 900 strain, trypomastigotes, average of two independent assays, read-out: IC50 T. b. rhod. Here is the method:
(§1) The in vitro activities against the protozoan parasites T.b. rhodesiense, and P. falciparum and cytotoxicity assessment against L6 cells were determined as reported elsewhere.

In data set [5] the test system is Plasmodium falciparum, NF54 strain, IEF stage. The data set can be described thus: In vitro antimalarial activity, NF54 drug sensitive strain. Type of data set: cell-based. The following applies: for IC50: NF54 strain, IEF stage, average of two independent assays, read-out: IC50 P. falc.; for Pf SI (selectivity index for P. falciparum = IC50 L6/IC50 Pf): NF54 strain vs L6. How it is done:
as §1

In data set [6] the test system is L6 rat skeletal myoblast cell line. Kind of data set: Cytotoxicity towards L6 cells. Type of data set: cell-based. The conditions noted are these: L6 rat skeletal myoblast cell line; average of two independent assays; read-out: IC50 L6. How it is done:
as §1

Data set [7] relates to GFP-transfected P. berghei strain ANKA. The data set can be described thus: In vivo anti-malarial efficacy in P. berghei infected mice. On the set-up: species or system Plasmodium berghei. The conditions noted are these: repeated ip dose of 50 (mg/kg)/day for four days. How it is done:
Analogue 20 was selected for in vivo evaluation in Plasmodium berghei infected mice. […] No increase in mean survival time was observed.
In vivo anti-malarial activity was assessed as previously described. Groups of three female NMRI mice (20–22 g) were intravenously infected with 2 × 10^7 parasitized erythrocytes on day 0 with GFP-transfected P. berghei strain ANKA [32]. Compounds were formulated in 100% DMSO, diluted 10-fold in distilled water and administered intraperitoneally in a volume of 10 mL·kg^−1 on four consecutive days (4, 24, 48 and 72 h post infection). Parasitemia was determined on day 4 post infection (24 h after last treatment) by FACS analysis. Activity was calculated as the difference between the mean per cent parasitaemia for the control (n = 5 mice) and treated groups expressed as a per cent relative to the control group. The survival of the animals was usually monitored up to 30 days: a compound was considered curative if the animal survived to day 30 after infection with no detectable parasites. In vivo efficacy studies in mice were conducted according to the rules and regulations for the protection of animal rights (“Tierschutzverordnung”) of the Swiss “Bundesamt für Veterinärwesen”. They were approved by the veterinary office of Canton Basel-Stadt, Switzerland.

The mark [8] stands for this setting: K1 strain, IEF stage, data taken from ref 24, read-out: IC50 P. falc.

Data on 14 compounds can be found in PMC4071569, “Investigation of Indolglyoxamide and Indolacetamide Analogues of Polyamines as Antimalarial and Antitrypanosomal Agents” (Marine Drugs, 2014).

The term IC50 denotes the concentration needed to halve the response being measured. Broadly, the melting point is the temperature of the solid-liquid transition.

Read-outs that look alike come from different tables or passages of the source.

In the case of `NCCCCNCCCNC(=O)C(=O)c1c[nH]c2ccccc12` [Compound 2, didemnidine A], the “Pf SI (selectivity index for P. falciparum = IC50 L6/IC50 Pf)” value in data set [1] (data taken from ref 24) is reported as 0.59. Further, the IC50 in data set [1] (setting [8]) was 41 µM; in data set [2], 59 µM; in data set [3], 24 µM.
Consider `NCCCCNCCCNC(=O)C(=O)c1c[nH]c2cc(Br)ccc12` [Compound 3, didemnidine B], for which the “Pf SI (selectivity index for P. falciparum = IC50 L6/IC50 Pf)” value in data set [1] (data taken from ref 24) is on record as 1.7. Also, the IC50 in data set [1] (setting [8]) was 15 µM; in data set [2], 44 µM; in data set [3] it was 25 µM.
With `CC(C)(C)OC(=O)NCCCCNCCCNC(=O)C(=O)c1c[nH]c2cc(Br)ccc12` [Compound 4], the “Pf SI (selectivity index for P. falciparum = IC50 L6/IC50 Pf)” value in data set [1] (data taken from ref 24) is on record as 3.0. Besides, the IC50 in data set [1] (setting [8]) was 8.4 µM; in data set [2], 9.9 µM; in data set [3], 25 µM.
In the case of `COc1ccc2c(C(=O)C(=O)NCCCN(CCCCCCCCN(CCCNC(=O)C(=O)c3c[nH]c4cc(OC)ccc34)C(=O)OC(C)(C)C)C(=O)OC(C)(C)C)c[nH]c2c1` [Compound 19, Di-tert-butyl Octane-1,8-diylbis((3-(2-(6-methoxy-1H-indol-3-yl)-2-oxoacetamido)propyl)carbamate)], the melting point is 92 °C. In data set [4] (Trypanosoma brucei), the IC50 was determined as 6.1 µM. In data set [5] (Plasmodium falciparum), the IC50 stood at 0.14 µM. The IC50 in data set [6] is at least 120 µM.
As for `COc1cccc2c(C(=O)C(=O)NCCCN(CCCCCCCCN(CCCNC(=O)C(=O)c3c[nH]c4c(OC)cccc34)C(=O)OC(C)(C)C)C(=O)OC(C)(C)C)c[nH]c12` [Compound 20, Di-tert-butyl Octane-1,8-diylbis((3-(2-(7-methoxy-1H-indol-3-yl)-2-oxoacetamido)propyl)carbamate)], the “increase in mean survival time” value in data set [7] is reported as “No increase”. In addition, the reduction in parasitaemia in data set [7] (parasitemia on day 4 post infection) was determined as 20.9%. The values for the IC50 in data set [4] (Trypanosoma brucei), in data set [5] (Plasmodium falciparum) and in data set [6] were 61 µM, 0.092 µM and at least 120 µM, respectively. The “Pf SI (selectivity index for P. falciparum = IC50 L6/IC50 Pf)” value in data set [5] is at least 1300.
Consider `COc1cccc2c(C(=O)C(=O)NCCCNCCCCCCCCNCCCNC(=O)C(=O)c3c[nH]c4c(OC)cccc34)c[nH]c12.O=C(O)C(F)(F)F.O=C(O)C(F)(F)F` [Compound 28, N^1,N^8-Bis(3-(2-(7-methoxy-1H-indol-3-yl)-2-oxoacetamido)propyl)octane-1,8-diaminium 2,2,2-trifluoroacetate], for which the results for the IC50 in data set [4] (Trypanosoma brucei), in data set [5] (Plasmodium falciparum) and in data set [6] were 2.1 µM, 0.12 µM and 6.6 µM, respectively. In addition, the “Pf SI (selectivity index for P. falciparum = IC50 L6/IC50 Pf)” value in data set [5] is reported as 55.
In the same order, the values of `O=C(NCCCNCCCCCCCCCCCCNCCCNC(=O)C(=O)c1c[nH]c2ccccc12)C(=O)c1c[nH]c2ccccc12.O=C(O)C(F)(F)F.O=C(O)C(F)(F)F` [Compound 29, N^1,N^12-Bis(3-(2-(1H-indol-3-yl)-2-oxoacetamido)propyl)dodecane-1,12-diaminium 2,2,2-trifluoroacetate] are 0.27 µM, 0.033 µM, 2.3 µM and 70.
As for `COc1ccc2[nH]cc(C(=O)C(=O)NCCCNCCCCCCCCCCCCNCCCNC(=O)C(=O)c3c[nH]c4ccc(OC)cc34)c2c1.O=C(O)C(F)(F)F.O=C(O)C(F)(F)F` [Compound 30, N^1,N^12-Bis(3-(2-(5-methoxy-1H-indol-3-yl)-2-oxoacetamido)propyl)dodecane-1,12-diaminium 2,2,2-trifluoroacetate], the IC50 came to 0.27 µM in data set [4] (Trypanosoma brucei), 0.2 µM in data set [5] (Plasmodium falciparum) and 17 µM in data set [6]. Moreover, in data set [5], the “Pf SI (selectivity index for P. falciparum = IC50 L6/IC50 Pf)” value is reported as 85.
On the same counts, the results for `COc1ccc2c(C(=O)C(=O)NCCCNCCCCCCCCCCCCNCCCNC(=O)C(=O)c3c[nH]c4cc(OC)ccc34)c[nH]c2c1.O=C(O)C(F)(F)F.O=C(O)C(F)(F)F` [Compound 31, N^1,N^12-Bis(3-(2-(6-methoxy-1H-indol-3-yl)-2-oxoacetamido)propyl)dodecane-1,12-diaminium 2,2,2-trifluoroacetate] are 0.18 µM, 0.24 µM, 6 µM and 25.
`COc1cccc2c(C(=O)C(=O)NCCCNCCCCCCCCCCCCNCCCNC(=O)C(=O)c3c[nH]c4c(OC)cccc34)c[nH]c12.O=C(O)C(F)(F)F.O=C(O)C(F)(F)F` [Compound 32, N^1,N^12-Bis(3-(2-(7-methoxy-1H-indol-3-yl)-2-oxoacetamido)propyl)dodecane-1,12-diaminium 2,2,2-trifluoroacetate]: the IC50 in data set [4] (Trypanosoma brucei) was found to be 0.26 µM; in data set [5] (Plasmodium falciparum), 0.01 µM; in data set [6], 2.1 µM. Moreover, the “Pf SI (selectivity index for P. falciparum = IC50 L6/IC50 Pf)” value in data set [5] is reported as 210.
In the same order, the values of `CC(C)(C)OC(=O)N(CCCCN(CCCNC(=O)Cc1c[nH]c2ccccc12)C(=O)OC(C)(C)C)CCCNC(=O)Cc1c[nH]c2ccccc12` [Compound 33, Di-tert-butyl Butane-1,4-diylbis((3-(2-(1H-indol-3-yl)acetamido)propyl)carbamate)] are 7.1 µM, 0.16 µM, 19 µM and 120.
On the same counts, the results for `O=C(Cc1c[nH]c2ccccc12)NCCCNCCCCNCCCNC(=O)Cc1c[nH]c2ccccc12.O=C(O)C(F)(F)F.O=C(O)C(F)(F)F` [Compound 36, N^1,N^4-Bis(3-(2-(1H-indol-3-yl)acetamido)propyl)butane-1,4-diaminium 2,2,2-trifluoroacetate] are 75 µM, 0.18 µM, 74 µM and 410.
In the case of `COc1cc(CC(=O)NCCCNCCCCNCCCNC(=O)Cc2ccc(O)c(OC)c2)ccc1O` [orthidine F, reference compound], the IC50 in data set [1] (K1 dual drug-resistant strain, read-out: IC50 antimalarial potency (P. falciparum)) is 0.89 µM.
On to “N^1,N^4-Bis(3-(2-(7-methoxy-1H-indol-3-yl)acetamido)propyl)butane-1,4-diaminium 2,2,2-trifluoroacetate [Compound 16]”, for which the figures for the IC50 in data set [4], in data set [5] and in data set [6] were 45 µM, 1.3 µM and 62 µM, respectively. Also, the “Pf SI (selectivity index for P. falciparum = IC50 L6/IC50 Pf)” value in data set [5] stood at 48.
